{"source": "paper PMC6290023", "about": "(Scientific Reports, 2018)", "key": {"[1]": {"assay": "Pharmacokinetics after intravenous injection 4 h after tMCAo (LC/MS/MS)", "type": "in vivo", "details": "mouse, i.v. 2 mg/ml, 10 ml/kg in 0.45% saline", "method": "MHP1-Ac or MHP1-AcN (2 mg/ml, 10 ml/kg in 0.45% saline) was administered intravenously 4 hrs after tMCAo and mouse plasma was collected at 5 min, 10 min, 20 min, 30 min, 45 min, 1 h, and 2 h after injection. Mouse plasma (C57BL6J, 10 µL) and water/phosphoric acid (24:1, v/v) (Solution B, 500 µL) were mixed together to prepare the plasma samples. The samples (510 µL) were then analyzed using LC/MS/MS to determine MHP1-Ac or MHP1-AcN in plasma. Mouse brain was weighed and mixed with a 4-fold volume of solution B and the mixture was homogenized to prepare the brain samples. The specific gravity of solution B was assumed to be 1. The brain samples (10 µL) were analyzed using LC/MS/MS to determine MHP1-Ac or MHP1-AcN in brain. MHP1-Ac and MHP1-AcN, and MHP1-N (internal standard), in the plasma samples and brain samples, were extracted using Oasis HLB μElution Plate (Waters). Chromatographic analysis was performed on an InertSustain C18 (2.1 mm I.D. ×50 mm, 3 µm, GL Sciences) column using the mobile phase A, water/formic acid (1000:1, v/v), and the mobile phase B, acetonitrile/formic acid (1000:1, v/v)."}, "[2]": {"test_system": "FeCl3-induced thrombosis model in CCA", "assay": "FeCl3-induced thrombosis model in CCA, thrombolysis with tPA", "type": "in vivo", "details": "mouse, MHP1-AcN 150 μg/mice combined with tPA 10 mg/kg, 30 min after CCA occlusion", "method": "(§1) The ischemic damage was evaluated at 48 h after MCAo in sections stained with cresyl violet. Coronal sections (12 μm thickness) were made at −1.4, −0.7, 0, 0.7 and 1.4 mm from the bregma, mounted on the stereomicroscope and photographed. The volume of the infarct was calculated by the sum of each area of all sections corrected by cerebral edema and multiplied by the thickness of the slices. In the experiment of tPA-induced hemorrhage, PE10-catheter was placed in the right internal jugular vein at 6 h after ischemia. The nylon suture was then removed and 10% of the MHP-AcN mixture (150 µg/mice) and tPA (10 mg/kg) were injected followed by continuous injection of residual mixture of MHP1-AcN and tPA using a syringe pump (UNIVENTOR 400 ANAESTHESIA UNIT, ZTN, MALTA). In the experiment of FeCl3 -induced thrombosis model in CCA, a piece of filter paper soaked in 7.5% FeCl3 was placed on the right CCA for 1 min and it was rinsed with saline. Blood flow was recorded by using a laser speckle blood flow imager (OMEGAZONE OZ-2, OMEGAWAVE, INC., Tokyo, Japan). tPA (10 mg/kg) or mixture of MHP1-AcN (150 μg/mice) and tPA was started to be administered at 30 min after CCA occlusion."}, "LPS-stimulated MG6 cells": {"test_system": "LPS-stimulated MG6 cells", "assay": "Anti-inflammatory effect in LPS-stimulated MG6 cells (TNF-α / IL-6 ELISA)", "type": "cell-based, mouse", "method": "MG6 cells were obtained from RIKEN BRC (Tsukuba, Japan)[25],[26]. The MG6 cells were maintained in DMEM (Nakarai, Kyoto, Japan) supplemented with 10% FBS (Thermo Fisher Scientific, Waltham, MA, USA), 10 μg/ml insulin (Sigma-Aldrich, St. Louis, MO, USA) and 100 μM 2-mercaptoethanol (Sigma-Aldrich). These cells (1 × 10^5 cells) were plated in 96-well plastic culture dishes. After overnight incubation, the medium was replaced with DMEM supplemented with 4% FBS. LPS (Escherichia coli 0111: B4; Sigma-Aldrich, St. Louis, MO, USA) and MHP1 or modified MHP1 was added to the medium, which was then harvested at 24 h after stimulation. In the experiment checking the stability at 26 or 37 °C, MHP1-Ac or MHP1-AcN was incubated at 26 or 37 °C for 24 h before adding to the medium.\nThe concentrations of TNF-α and IL-6 were measured using commercially available ELISA kits: TNF-α, Quantikine Mouse TNF-α ELISA Kit (R&D systems); IL-6, Quantikine Mouse IL-6 ELISA Kit (R&D systems)."}, "[3]": {"test_system": "mouse osteoclast precursor cells", "assay": "Osteoclast differentiation of mouse osteoclast precursor cells (TRAP-positive large cells)", "type": "cell-based", "details": "M-CSF 50 ng/ml, 5 days", "method": "Osteoclast differentiation was examined using a mouse osteoclast culture system obtained from Cosmo Bio Co. Ltd. (Tokyo, Japan). Mouse osteoclast precursor cells seeded in a 24-well plate were incubated with macrophage colony stimulating factor (50 ng/ml) and RANKL (50 ng/ml) with or without MHP1-AcN. After five days, osteoclast precursors stimulated with RANKL had fused with each other and became multinucleated TRAP-positive cells. Cells with more than ten nuclei were classified as large osteoclasts. The number of these cells in each group was counted with a phase contrast microscope (BZ-9000, Keyence, Tokyo) using BZII analyzer software (v1.42; Keyence, Tokyo)."}, "[4]": {"assay": "Dissolution in water and sedimentation in 0.45% saline at 37 °C for 24 h", "type": "physicochemical", "details": "for sedimentation after incubation in 0.45% saline: 37 °C, 24 h, visual", "method": "Synthetic MHP1 (NH2-[…]-COOH), MHP1-DN1 (NH2-LMVYVV-DLys-[…]-COOH), MHP1-DN2 (NH2-LMV-DTyr-[…]-COOH), MHP1-DN3 (NH2-L-DMet-[…]-COOH), MHP1-DC (NH2-LMVYVVKTSIKIPSSHNL-DMet-KGGSTKNWSGN-COOH), MHP1-Ac (Ac-[…]-COOH), MHP1-AcN (Ac-[…]-HN2), or MHP1-N (NH2-[…]-NH2) was purchased from ILS, Inc (Ibaraki, Tsukuba, Japan), dissolved in 1 or 2 mg/ml ddH2O and stored at 4 °C until use (Table 1)."}, "tPA-induced hemorrhage": {"test_system": "tPA-induced hemorrhage", "type": "in vivo", "details": "mouse tMCAo, MHP1-AcN 150 µg/mice combined with tPA 10 mg/kg after reperfusion at 6 h; 24 h after ischemia", "method": "as §1"}, "[5]": {"assay": "Safety in normal mice (blood biochemistry)", "type": "in vivo, mouse", "details": "intravenous injection and continuous subcutaneous injection with Alzet pump, 24 h post-injection"}, "[6]": {"details": "LPS-stimulated MG6 cells, medium harvested 24 h after stimulation, ELISA"}}, "note": "Peptide text beside a SMILES is read from it.", "data": [{"smiles": "CC[C@H](C)[C@H](NC(=O)[C@H](CO)NC(=O)[C@@H](NC(=O)[C@H](CCCCN)NC(=O)[C@@H](NC(=O)[C@@H](NC(=O)[C@H](Cc1ccc(O)cc1)NC(=O)[C@@H](NC(=O)[C@H](CCSC)NC(=O)[C@H](CC(C)C)NC(C)=O)C(C)C)C(C)C)C(C)C)[C@@H](C)O)C(=O)N[C@@H](CCCCN)C(=O)N[C@H](C(=O)N1CCC[C@H]1C(=O)N[C@@H](CO)C(=O)N[C@@H](CO)C(=O)N[C@@H](Cc1c[nH]cn1)C(=O)N[C@@H](CC(N)=O)C(=O)N[C@@H](CC(C)C)C(=O)N[C@@H](CCSC)C(=O)N[C@@H](CCCCN)C(=O)NCC(=O)NCC(=O)N[C@@H](CO)C(=O)N[C@H](C(=O)N[C@@H](CCCCN)C(=O)N[C@@H](CC(N)=O)C(=O)N[C@@H](Cc1c[nH]c2ccccc12)C(=O)N[C@@H](CO)C(=O)NCC(=O)N[C@@H](CC(N)=O)C(N)=O)[C@@H](C)O)[C@@H](C)CC", "note": "[MHP1-AcN] (Ac-LMVYVVKTSIKIPSSHNLMKGGSTKNWSGN-NH2)", "values": [{"measurement": "level at 0.5 h", "setting": "[1]; C57BL6J, iv, 20 mg/kg, plasma, 30 min, read-out: intact peptide in plasma 30 min post-injection", "value": "~8000", "unit": "ng/mL"}, {"measurement": "time post-injection until which peptide was detected in the brain", "setting": "[1]; brain homogenate, last sampling 2 h", "value": 2, "unit": "h"}, {"measurement": "effect on time of recanalization by tPA", "setting": "[2]", "value": "did not affect the time of recanalization"}, {"measurement": "anti-inflammatory effects at 1 µg/ml", "setting": "LPS-stimulated MG6 cells; LPS-stimulated MG6 cells, 1 µg/ml peptide", "value": "anti-inflammatory effects were seen"}, {"measurement": "dose dependency of anti-inflammatory effects", "setting": "LPS-stimulated MG6 cells; LPS-stimulated MG6 cells, 24 h, ELISA", "value": "Dose-dependent anti-inflammatory effects were observed"}, {"measurement": "inhibition of IL-6 expression compared with MHP1", "setting": "LPS-stimulated MG6 cells; [6]", "value": "more effective than MHP1"}, {"measurement": "inhibition of TNF-α expression compared with MHP1", "setting": "LPS-stimulated MG6 cells; [6]", "value": "more effective than MHP1"}, {"measurement": "expression of TNF-α with peptide pre-incubated at 4, 37 or 26 °C (retention of anti-inflammatory effect)", "setting": "LPS-stimulated MG6 cells; peptide incubated at 4, 37 or 26 °C for 24 h, then added to LPS-stimulated MG6 cells", "value": "no significant differences"}, {"measurement": "effect on RANKL-induced osteoclast differentiation", "setting": "[3]; RANKL 50 ng/ml", "value": "inhibited RANKL-induced osteoclast differentiation"}, {"measurement": "effect on osteoclast differentiation (peptide alone)", "setting": "[3]; without RANKL", "value": "did not affect the osteoclast differentiation"}, {"measurement": "sedimentation after incubation in 0.45% saline", "setting": "[4]; 1 mg/ml", "value": "sedimentation was not observed"}, {"measurement": "sedimentation after incubation in 0.45% saline", "setting": "[4]; 2 mg/ml", "value": "sedimentation was not observed"}, {"measurement": "dissolution in water", "setting": "[4]; water", "value": "easily dissolved in water"}, {"measurement": "effect on tPA-induced hemorrhagic formation", "setting": "tPA-induced hemorrhage", "value": "reduced formation of hemorrhage"}, {"measurement": "blood biochemistry", "setting": "[5]", "value": "no abnormalities"}]}]}
